Tested on: respiratory epithelial cells

IL-13: human IL-13 (Peprotech, Inc.) added to the medium at 50 ng/mL to stimulate respiratory epithelial cells
TGM2 (38404_at) expression fold change upon IL-13 stimulation (lot 1, Day 7, AI method): 2.8 fold
TSPAN-3 (38612_at) expression, fold change upon IL-13 stimulation (lot 1, Day 7, AI method): 2.7 fold
TXNRD1 (39425_at) expression fold change upon IL-13 stimulation (lot 1, Day 7, AI method): 2.5 fold
UBE2L6 (40505_at) expression fold change upon IL-13 stimulation (lot 1, Day 7, AI method): 5.1 fold
UFD1L (811_at) expression, fold change upon IL-13 stimulation (lot 1, Day 7, AI method): 5.1 fold
W06879 (57696_at) expression fold change (lot 1, Day 7, AI method): 2.1 fold
ZNF263 (33288_i_at) expression fold change (lot 1, Day 7, AI method): 2.6 fold
diubiquitin (39959_at) expression, fold change upon IL-13 stimulation (lot 1, Day 7, AI method): 4.3 fold
AA053401 (56234_r_at) expression change (lot 1, Day 7, IMM): −5.7
AA059458 (65626_at) expression change (lot 1, Day 7, IMM): −3.1
AA456099 (59567_at) expression change (lot 1, Day 7, IMM): −2.3
AF052107 38262_at expression change (lot 1, Day 7, IMM): −4.5
AI050855 (64285_at) expression change (lot 1, Day 7, IMM): −3.7
AI432375 (49819_at) expression change (lot 1, Day 7, IMM): −6.3
AI770116 (70124_at) expression change (lot 1, Day 7, IMM): −2.1
AI798733 (64163_at) expression change (lot 1, Day 7, IMM): −2.3
AI829641 (84270_at) expression change (lot 1, Day 7, IMM): 11.7
AI948584 48086_at expression change (lot 1, Day 7, IMM): −6.2
AQP5 32909_at expression change (lot 1, Day 7, IMM): −2.5
ARHGEF4 36524_at expression change (lot 1, Day 7, IMM): −2.2
BARX2 35425_at expression change (lot 1, Day 7, IMM): −2.7
CBLB 514_at expression change (lot 1, Day 7, IMM): −2.4
CBLB 35632_at expression change (lot 1, Day 7, IMM): −2
CRABP-II 1057_at expression change (lot 1, Day 7, IMM): −2.7
DKFZp434K1210 44682_at expression change (lot 1, Day 7, IMM): −2.1
DSC3 (79615_at) expression change (lot 1, Day 7, IMM): −4
DSC3a, b 47119_at expression change (lot 1, Day 7, IMM): −3.4
DSC3a, b 79615_at expression change (lot 1, Day 7, IMM): −4
EIF4EBP1 (54152_at) expression change (lot 1, Day 7, IMM): −7.3
FLJ10718 52072_at expression change (lot 1, Day 7, IMM): −8
FLJ20373 54030_at expression change (lot 1, Day 7, IMM): −2.1
FLJ23516 47534_at expression change (lot 1, Day 7, IMM): −5.4
GJA1 32531_at expression change (lot 1, Day 7, IMM): −5.5
HEY1 44783_s_at expression change (lot 1, Day 7, IMM): −3.4
HIN-1 (46200_at) expression change (lot 1, Day 7, IMM): −4
ID1 36619_r_at expression change (lot 1, Day 7, IMM): −3.9
IL20RA 42969_at expression change (lot 1, Day 7, IMM): −2.9
IVL 36355_at expression change (lot 1, Day 7, IMM): −4.5
K1IAA1102 (64345_s_at) expression change (lot 1, Day 7, IMM): −5.6
KCNMA1 (53796_at) expression change (lot 1, Day 7, IMM): −3
KIAA0878 (48793_at) expression change (lot 1, Day 7, IMM): −2.4
KLF7 34216_at expression change (lot 1, Day 7, IMM): −6.3
KLF7 (42769_at) expression change (lot 1, Day 7, IMM): −3.7
KRT6B (62998_at) expression change (lot 1, Day 7, IMM): −2.5
KRT15 37582_at expression change (lot 1, Day 7, IMM): −2
LOC51297 (49616_at) expression change (lot 1, Day 7, IMM): −3.9
LOC51297 (55440_at) expression change (lot 1, Day 7, IMM): −3.7
LOC51297 (55442_g_at) expression change (lot 1, Day 7, IMM): −12.8
LOC129642 (42065_at) expression change (lot 1, Day 7, IMM): −4.3
LOC129642 (58288_at) expression change (lot 1, Day 7, IMM): −3.9
MGC14128 55924_at expression change (lot 1, Day 7, IMM): −2.7
MGC14128 (51669_r_at) expression change (lot 1, Day 7, IMM): −2.1
MGC16207 (65876_at) expression change (lot 1, Day 7, IMM): −2.3
N71183 52473_at expression change (lot 1, Day 7, IMM): −2.1
PR01489 57777_at expression change (lot 1, Day 7, IMM): −10.9
RAC2 32737_at expression change (lot 1, Day 7, IMM): −3.2
SEMA4B (46709_at) expression change (lot 1, Day 7, IMM): −2.2
SERPINA3 (75248_at) expression change (lot 1, Day 7, IMM): −16.3
SPRR1B 37160_at expression change (lot 1, Day 7, IMM): −2.4
T52027 (63150_at) expression change (lot 1, Day 7, IMM): 2.5
TCF8 33439_at expression change (lot 1, Day 7, IMM): −2.4
TGFBI (68339_at) expression change (lot 1, Day 7, IMM): −3.2
TNNT1 36113_s_at expression change (lot 1, Day 7, IMM): −4.9
TNRC3 41246_at expression change (lot 1, Day 7, IMM): −2.4
TPM1 36790_at expression change (lot 1, Day 7, IMM): −5.5
TPM1 36791_g_at expression change (lot 1, Day 7, IMM): −7.5
TPM1 36792_at expression change (lot 1, Day 7, IMM): −5.7
UGB 39220_at expression change (lot 1, Day 7, IMM): −8.2
VIM 34091_s_at expression change (lot 1, Day 7, IMM): −6.6
W55956 46700_at expression change (lot 1, Day 7, IMM): −2.4
W72331 49486 at expression change (lot 1, Day 7, IMM): −4.8
ADAM8 (40712_at) expression, fold change upon IL-13 stimulation (lot 1, Day 7, IMM method): 2.8 fold
ADAM28 (35479_at) expression, fold change upon IL-13 stimulation (lot 1, Day 7, IMM method): 6.4 fold
AI659927 (54033_at) expression fold change (lot 1, Day 7, IMM method): 11 fold
AI718385 (53061_at) expression fold change (lot 1, Day 7, IMM method): 3.2 fold
AI809925 (53010_at) expression fold change (lot 1, Day 7, IMM method): 2.8 fold
AI989346 (52327_s_at) expression fold change (lot 1, Day 7, IMM method): 2.1 fold
AKAP2 (35985_at) expression, fold change upon IL-13 stimulation (lot 1, Day 7, IMM method): 2.2 fold
ALOX15 (34636_at) expression, fold change upon IL-13 stimulation (lot 1, Day 7, IMM method): 118.8 fold
AW019985 (48826_s_at) expression fold change (lot 1, Day 7, IMM method): 10.8 fold
BRCA1 (626_s_at) expression fold change (lot 1, Day 7, IMM method): 2.4 fold
BST2 (39061_at) expression, fold change upon IL-13 stimulation (lot 1, Day 7, IMM method): 5.4 fold
C21orf11 (58957_at) expression fold change (lot 1, Day 7, IMM method): 6 fold
CCND3 (1794_at) expression fold change upon IL-13 stimulation (lot 1, Day 7, IMM method): 2.3 fold
CDH6 (1620_at) expression fold change upon IL-13 stimulation (lot 1, Day 7, IMM method): 4.2 fold
CDH6 (57421_at) expression fold change (lot 1, Day 7, IMM method): 4.5 fold
CDH26 (46916_at) expression fold change (lot 1, Day 7, IMM method): 9.3 fold
CH25H (32363_at) expression, fold change upon IL-13 stimulation (lot 1, Day 7, IMM method): 11.4 fold
CLDN4 (35276_at) expression, fold change upon IL-13 stimulation (lot 1, Day 7, IMM method): 2.1 fold
CLDN5 (38995_at) expression, fold change upon IL-13 stimulation (lot 1, Day 7, IMM method): 3.9 fold
CTSC (133_at) expression, fold change upon IL-13 stimulation (lot 1, Day 7, IMM method): 5.6 fold
CXCL16 (44095_at) expression fold change (lot 1, Day 7, IMM method): 2.6 fold
DD96 (31610_at) expression, fold change upon IL-13 stimulation (lot 1, Day 7, IMM method): 9.5 fold
DKFZP564O0823 (41402_at) expression, fold change upon IL-13 stimulation (lot 1, Day 7, IMM method): 9.6 fold
DKFZP566J091 (57197_at) expression fold change (lot 1, Day 7, IMM method): 4.2 fold
DKFZp564N1116 (37784_at) expression, fold change upon IL-13 stimulation (lot 1, Day 7, IMM method): 6 fold
DPP4 (34823_at) expression fold change upon IL-13 stimulation (lot 1, Day 7, IMM method): 3.9 fold
DPYD (38220_at) expression fold change upon IL-13 stimulation (lot 1, Day 7, IMM method): 6.9 fold
EMILIN-2 (51628_at) expression fold change (lot 1, Day 7, IMM method): 5 fold
FETUB (32620_at) expression fold change (lot 1, Day 7, IMM method): 7.4 fold
FETUB (33101_g_at) expression fold change (lot 1, Day 7, IMM method): 7.7 fold
FLJ10261 (43366_at) expression fold change (lot 1, Day 7, IMM method): 8.4 fold
FLJ22693 (53777_at) expression fold change (lot 1, Day 7, IMM method): 2.2 fold
GADD45G (39154_at) expression fold change upon IL-13 stimulation (lot 1, Day 7, IMM method): 3.1 fold
HAS3 (54604_at) expression fold change (lot 1, Day 7, IMM method): 2.2 fold
HLA-F (37420_i_at) expression, fold change upon IL-13 stimulation (lot 1, Day 7, IMM method): 2.4 fold

— patent US20050208496A1, “Methods of testing for bronchial asthma or chronic obstructive pulmonary disease” (Genox Research, Inc., priority 2002, published 2005)
